Source: patent US6380243B1, “Aminopyridine-containing thiourea inhibitors of herpes viruses” (American Home Products Corporation, priority 1998, dated 2002)
Converted amounts (≈) assume the structure as drawn.

Tests used:
HCMV wild-type = test: HCMV yield assay; format: cell-based, human cytomegalovirus; conditions: Human betaherpesvirus 5, Fibroblast; human foreskin fibroblasts; reduction of virus yield by 50%; read-out: IC50 (ug/ml) HCMV
Procedure: Yield assay. Monolayer cultures of human foreskin fibroblasts are infected with HCMV wild-type, typically at a multiplicity of infection equal to 0.2, in the presence of inhibitor compound (varying concentrations). At three days post-infection, total virus produced in these cultures (i.e. virus yield) is assessed by harvesting and titering the virus in 12-well plates of cultured human foreskin fibroblasts (done in the absence of inhibitor). Plaques are quantified at 2 weeks post-infection. An inhibitor of HCMV is identified by the reduction in titer of virus yield in the presence, compared to the titer in the absence of compound. In this assay, the relative anti-HCMV activity of an inhibitor is typically determined by calculating the IC50 or IC90 value, that is, the amount of compound required to reduce the virus yield by 50% or 90%, respectively. Table I describes IC50 data for compounds tested against HCMV.

VZV strain Ellen = test: VZV Antiviral (ELISA) Assay; format: cell-based, varicella-zoster virus; conditions: Human alphaherpesvirus 3, 72 h; for IC50: human foreskin fibroblast cells, three days, read-out: IC50 (ug/ml) VZV; for inhibition at 10 µg/mL: read-out: % inhibition 10 ug/ml VZV, 10 ug/ml, human foreskin fibroblast cells, three days
Procedure: For the generation of stock VZV to be used in the assay, VZV strain Ellen (ATCC #VR-1367) is used to infect human foreskin fibroblast (HFF) cells at low multiplicity (less than 0.1) and incubated overnight at 37° C. in 5% CO2. After the overnight incubation, the mixture of uninfected and VZV-infected HFF infected cells are then harvested and added to each well of 96-well plates (3.5×10^4 cells in 100 1μl DMEM supplemented with 2% FBS) which contain test compound or the reference standard drug control (in 100 μl DMEM supplemented with 2% FBS per well). These cells are incubated for three days at 37° C. in 5% CO2, then fixed for ELISA assay. The primary antibody is murine anti-VZV glycoprotein II monoclonal antibody (Applied Biosystems, Inc. #13-145-100) and the secondary antibody is goat anti-mouse IgG linked to β-galactosidase. Thus the extent of viral replication is determined by assessing β-galactosidase activity by quantifying the generation of the 4-methyl umbelliferone fluorescent cleavage product after addition of the methyl umbelliferyl-β-D-galactoside (Sigma #M1633) substrate on a microfluorimeter (365 nm for excitation 450 nm for emission). Antiviral activity (IC50) of the test compound is determined by comparing the flourescence obtained in absence of compound to that obtained the presence of compound.

HSV-1 = test: HSV Antiviral (ELISA) Assay; format: cell-based, herpes simplex virus type 1; conditions: Human alphaherpesvirus 1, Vero cells, HSV-1, about 24 hours post-infection, read-out: IC50 (ug/ml) HSV
Procedure: Vero cells (ATCC #CCL-81) are plated on 96-well tissue culture plates at 3.5×10^4 cells per 100 μl tissue culture DMEM (Dulbecco's modified Eagle media) supplemented with 2% fetal bovine serum (FBS) in each well. After overnight incubation @37° C. (in 5% CO2) and 30 minutes prior to infection with HSV-1 (multiplicity of infection equal to 0.006), cells are either untreated, or treated with test compound (multiple concentrations) or reference standard drug control. After approximately 24 hours post-infection incubation @37° C. (in 5% CO2), cells are fixed for ELISA assay. The primary antibody is murine anti-HSV glycoprotein D monoclonal primary antibody and the secondary antibody is goat anti-mouse IgG linked to β-galactosidase. Thus the extent of viral replication is determined by assessing β-galactosidase activity by quantifying the generation of the 4-methyl umbelliferone fluorescent cleavage product after addition of the methyl umbelliferyl-β-D-galactoside (Sigma #M1633) substrate on a microfluorimeter (365 nm for excitation and 450 nm for emission). Antiviral activity (IC50) of the test compound is determined by comparing the flourescence obtained in absence of compound to that obtained in the presence of compound.

SMILES	IC50 (HCMV wild-type)	IC50 (VZV strain Ellen)	inhibition at 10 µg/mL (VZV strain Ellen)	IC50 (HSV-1)
O=C(Nc1ccc(NC(=S)Nc2ccccn2)cc1)c1ccco1 [Example 426, Furan-2-carboxylic acid [4-(3-pyridin-2-yl-thioureido)-phenyl]-amide]	1.6 µg/mL (≈ 4.73 µM)	1.8 µg/mL (≈ 5.32 µM)	2%	> 10 µg/mL
O=C(Nc1ccc(NC(=S)Nc2ccncc2)cc1)c1ccco1 [Example 427, Furan-2-carboxylic acid [4-(3-pyridin-4-yl-thioureido)-phenyl]-amide]	0.8 µg/mL (≈ 2.36 µM)	1.2 µg/mL (≈ 3.55 µM)	21%	> 10 µg/mL
O=C(Nc1ccc(NC(=S)Nc2cccnc2)cc1)c1ccccc1F [Example 428, 2-Fluoro-N-[4-(3-pyridin-3-yl-thioureido)-phenyl]-benzamide]	> 10 µg/mL	> 10 µg/mL	0%	> 10 µg/mL
O=C(Nc1ccc(NC(=S)Nc2cccnc2)cc1)c1ccco1 [Example 429, Furan-2-carboxylic acid [4-(3-pyridin-3-yl-thioureido)-phenyl]-amide]	1 µg/mL (≈ 2.96 µM)	> 10 µg/mL	0%	> 10 µg/mL
O=C(Nc1ccc(NC(=S)Nc2ccccn2)cc1)c1ccccc1F [Example 443, 2-Fluoro-N-[4-(3-pyridin-2-yl-thioureido)-phenyl]-benzamide]	> 10 µg/mL	> 10 µg/mL	0%	> 10 µg/mL
O=C(Nc1ccc(NC(=S)Nc2ccncc2)cc1)c1ccccc1F [Example 444, 2-Fluoro-N-[4-(3-pyridin-4-yl-thioureido)-phenyl]-benzamide]	4 µg/mL (≈ 10.9 µM)	> 10 µg/mL	0%	8 µg/mL (≈ 21.8 µM)
O=C(Nc1ccc(NC(=S)Nc2ccc(Cl)nc2)cc1)c1csnn1 [Example 471, [1,2,3]Thiadiazole-4-carboxylic acid {4-[3-(6-chloro-pyridin-3-yl)-thioureido]-phenyl}-amide]	0.03 µg/mL (≈ 0.0767 µM)	> 10 µg/mL	27%	> 10 µg/mL
O=C(Nc1ccc(NC(=S)Nc2ccncn2)cc1)c1ccco1 [Example 480, Furan-2-carboxylic acid [4-(3-pyrimidin-4-yl-thioureido)-phenyl]-amide]	7 µg/mL (≈ 20.6 µM)	> 10 µg/mL	42%	> 10 µg/mL
O=C(Nc1ccc(NC(=S)Nc2ccc3[nH]ncc3c2)cc1)c1ccccc1F [Example 483, 2-Fluoro-N-{4-[3-(1H-indazol-5-yl)-thioureido]-phenyl}-benzamide]	5 µg/mL (≈ 12.3 µM)	> 10 µg/mL	45%	1.2 µg/mL (≈ 2.96 µM)
O=C(Nc1ccc(NC(=S)Nc2cncc(Br)c2)cc1)c1csnn1 [Example 525, [1,2,3]Thiadiazole-4-carboxylic acid {4-[3-(5-bromo-pyridin-3-yl)-thioureido]-phenyl}-amide]	0.018 µg/mL (≈ 0.0413 µM)	> 10 µg/mL	39%	2.5 µg/mL (≈ 5.74 µM)
CC(C)(C)n1ccnc1NC(=S)Nc1ccc(NC(=O)c2ccccc2F)cc1 [Example 593, N-{4-[3-(1-tert-Butyl-1H-imidazol-2-yl)-thioureido]-phenyl}-2-fluoro-benzamide]	> 0.5 µg/mL	> 10 µg/mL		10 µg/mL (≈ 24.3 µM)
CC(C)(C)n1ccnc1NC(=S)Nc1ccc(NC(=O)c2csnn2)cc1 [Example 608, [1,2,3]Thiadiazole-4-carboxylic acid {4-[3-(1-tert-butyl-1H-imidazol-2-yl)-thioureido]-phenyl}-amide]	> 0.5 µg/mL	> 10 µg/mL		9 µg/mL (≈ 22.4 µM)
CC(C)(C)n1ccnc1NC(=S)Nc1ccc(NC(=O)c2ccco2)cc1 [Example 609, Furan-2-carboxylic acid {4-[3-(1-tert-butyl-1H-imidazol-2-yl)-thioureido]-phenyl}-amide]	1.5 µg/mL (≈ 3.91 µM)	> 10 µg/mL		8 µg/mL (≈ 20.9 µM)
O=C(Nc1ccc(NC(=S)Nc2cncc(C(F)(F)F)c2)cc1)c1csnn1 [Example 629, [1,2,3]Thiadiazole-4-carboxylic acid {4-[3-(5-trifluoromethyl-pyridin-3-yl)-thioureido]-phenyl}-amide]	0.5 µg/mL (≈ 1.18 µM)	> 10 µg/mL		> 10 µg/mL
O=C(Nc1ccc(NC(=S)NCc2cccnc2)cc1)c1ccccc1F [Example 632, 2-Fluoro-N-[4-(3-pyridin-3-ylmethyl-thioureido)-phenyl]-benzamide]	> 10 µg/mL	> 10 µg/mL		> 10 µg/mL
O=C(Nc1ccc(NC(=S)NCc2cccnc2)cc1)c1ccco1 [Example 633, Furan-2-carboxylic acid [4-(3-pyridin-3-ylmethyl-thioureido)-phenyl]-amide]	0.34 µg/mL (≈ 0.965 µM)	> 10 µg/mL		> 10 µg/mL
O=C(Nc1ccc(NC(=S)NCc2cccnc2)cc1)c1csnn1 [Example 634, [1,2,3]Thiadiazole-4-carboxylic acid [4-(3-pyridin-3-ylmethyl-thioureido)-phenyl]-amide]	0.12 µg/mL (≈ 0.324 µM)	> 10 µg/mL		> 10 µg/mL
O=C(Nc1ccc(NC(=S)NC2CCc3ccccc32)cc1)c1csnn1 (stereo not shown) [Example 649, [1,2,3]Thiadiazole-4-carboxylic acid [4-(3-indan-1-yl-thioureido)-phenyl]-amide]	0.02 µg/mL (≈ 0.0506 µM)	0.5 µg/mL (≈ 1.26 µM)		> 10 µg/mL
O=C(Nc1ccc(NC(=S)NCc2ccncc2)cc1)c1ccccc1F [Example 658, 2-Fluoro-N-[4-(3-pyridin-4-ylmethyl-thioureido)-phenyl]-benzamide]	> 0.5 µg/mL			10 µg/mL (≈ 26.3 µM)
O=C(Nc1ccc(NC(=S)NCc2ccncc2)cc1)c1ccco1 [Example 659, Furan-2-carboxylic acid [4-(3-pyridin-4-ylmethyl-thioureido)-phenyl]-amide]	> 0.5 µg/mL			> 10 µg/mL
O=C(Nc1ccc(NC(=S)NCc2ccncc2)cc1)c1csnn1 [Example 660, [1,2,3]Thiadiazole-4-carboxylic acid [4-(3-pyridin-4-ylmethyl-thioureido)-phenyl]-amide]	> 0.5 µg/mL			10 µg/mL (≈ 27 µM)
CC(NC(=S)Nc1ccc(NC(=O)c2ccccc2F)cc1)c1ccco1 (stereo not shown) [Example 802, 2-Fluoro-N-{4-[3-(1-furan-2-yl-ethyl)-thioureido]-phenyl}-benzamide]	> 10 µg/mL	7.3 µg/mL (≈ 19 µM)		> 10 µg/mL
CC(NC(=S)Nc1ccc(NC(=O)c2ccccc2F)cc1)c1ccncc1 (stereo not shown) [Example 803, 2-Fluoro-N-{4-[3-(1-pyridin-4-yl-ethyl)-thioureido]-phenyl}-benzamide]	> 10 µg/mL	> 7.5 µg/mL		> 10 µg/mL
CC(NC(=S)Nc1ccc(NC(=O)c2ccccc2F)cc1)c1cccn1C (stereo not shown) [Example 804, 2-Fluoro-N-(4-{3-[1-(1-methyl-1H-pyrrol-2-yl)-ethyl]-thioureido}-phenyl)-benzamide]	> 10 µg/mL	5.7 µg/mL (≈ 14.4 µM)		> 10 µg/mL
CC(NC(=S)Nc1ccc(NC(=O)c2ccccc2F)cc1)c1ccsc1 (stereo not shown) [Example 805, 2-Fluoro-N-{4-[3-(1-thiophen-3-yl-ethyl)-thioureido]-phenyl}-benzamide]	8 µg/mL (≈ 20 µM)	1.6 µg/mL (≈ 4 µM)		> 10 µg/mL
CC(NC(=S)Nc1ccc(NC(=O)c2ccccc2F)cc1)c1nccs1 (stereo not shown) [Example 1093, 2-Fluoro-N-{4-[3-(1-thiazol-2-yl-ethyl)-thioureido]-phenyl}-benzamide]	> 10 µg/mL	> 10 µg/mL		> 10 µg/mL
